According to publication PMC11187126, “Structure and dynamics of the pyroglutamylated RF-amide peptide QRFP receptor GPR103” (Nature Communications, 2024):
Read-outs that look alike come from different tables or passages of the source. No end group written: not given here.

Target: T1, GPR103 L14N-termA (Homo sapiens, UniProt Q96P65, L14A)
T1 construct: we used human full-length QRFPR-encoding plasmids; expressed in transfected cells; host or cells: HEK293 cells, pCAGGS vector
T1 sequence (Q96P65 1-431 L14A): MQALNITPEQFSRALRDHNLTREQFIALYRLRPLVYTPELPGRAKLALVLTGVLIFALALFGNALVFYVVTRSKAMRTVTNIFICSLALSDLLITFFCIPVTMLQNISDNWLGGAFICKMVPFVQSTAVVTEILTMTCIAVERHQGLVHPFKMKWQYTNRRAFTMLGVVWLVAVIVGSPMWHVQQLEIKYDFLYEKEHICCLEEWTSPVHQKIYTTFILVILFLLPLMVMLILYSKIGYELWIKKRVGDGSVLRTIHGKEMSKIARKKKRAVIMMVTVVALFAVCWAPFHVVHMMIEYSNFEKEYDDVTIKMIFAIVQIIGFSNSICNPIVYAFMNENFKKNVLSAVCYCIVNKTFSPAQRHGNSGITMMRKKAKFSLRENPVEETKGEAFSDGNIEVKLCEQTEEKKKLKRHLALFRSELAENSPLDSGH
Test: TGFα shedding assay; Exp. level WT (1:5)
Format: cell-based
Description: For the TGFα shedding assay and the flow cytometry analysis, we used human full-length QRFPR-encoding plasmids. Specifically, GPR103 was N-terminally modified with an HA signal sequence followed by a FLAG epitope and then a flexible linker ([…]; the FLAG epitope is underlined) and inserted into the pCAGGS vector. Plasmid encoding GPR103 mutants were generated using Quickchange Site-Directed Mutagensis kit (Agilent).
The TGFα shedding assay was performed as described previously with minor modifications. Plasmid transfection was performed in a 6-well plate with a mixture of 500 ng (per well in a 6-well plate) AP-TGFα-encoding plasmid and 200 ng GPR103-encoding plasmid. After 1-day culture, the transfected cells were harvested by trypsinization, pelleted by centrifugation at 190 × g for 5 min, and washed once with 5 mM HEPES (pH 7.4)-containing Hank’s Balanced Salt Solution (HBSS). After centrifugation, the cells were resuspended in 8 mL of the HEPES-containing HBSS. The cell suspension was seeded in a 96-well culture plate (cell plate) at a volume of 90 μL (per well hereafter) and incubated in a 37 °C incubator with 5% CO2 for 30 min. […] After spinning the cell plates at 190 × g for 2 min, 80 μL of conditioned media was transferred to an empty 96-well plate (conditioned media (CM) plate). Then, 80 μL of AP reaction solution (10 mM p-nitrophenylphosphate (p-NPP), 120 mM Tris-HCl (pH 9.5), 40 mM NaCl, and 10 mM MgCl2) was dispensed into the cell plates and the CM plates. Absorbance at 405 nm of the plates was measured using a microplate reader (SpectraMax 340 PC384, Molecular Devices) before and after 1-h incubation at room temperature. Ligand-induced AP-TGFα release was calculated by subtracting spontaneous AP-TGFα release signal from ligand-induced AP-TGFα release signal. The AP-TGFα release signals were fitted to a four-parameter sigmoidal concentration–response curve, using the Prism 10 software (GraphPad Prism). For each replicate experiment, the pEC50 parameter (negative logarithmic values of EC50 values) of the individual GPR103 mutants were normalized to that of the wild-type GPR103 performed in parallel, and resulting ∆pEC50 values were used to denote ligand response activity of the mutants. […]
Exp. le vel: WT (1:5 0)Exp. le vel: WT (1:5 0)Exp. le vel: WT (1:5 0)Exp. le vel: WT (1:2 0)Exp. le vel: WT (1:2 0)Exp. le vel: WT (1:1 0) […]
L1 4N - t e r mA F2 5N - t e r mA I 2 6N - t e r mA Y 2 9N - t e r mA C 9 82 .5 7A T10 22 .6 1A Exp . l eve l: WT (1 :5)Exp . l evel : >WT (1 :1)Exp. le vel: WT (1:2 0)Exp. le vel: WT (1:2 0)Exp. le vel: WT (1:5 0)Exp . l eve l: WT (1 :1) […]
Exp. le vel: WT (1:1 0)Exp. le vel: WT (1:2 0) C 1 1 83 .2 5AExp. le vel: WT (1:5 0)Exp. le vel: WT (1:5 0)Exp. le vel: WT (1:2 0)Exp . l eve l: WT (1 :5) […]
Exp. le vel: WT (1:5 0)Exp. le vel: WT (1:1 0)Exp. le vel: WT (1:5 0) E203ECL2AExp . l evel : >WT (1 :1)Exp. le vel: WT (1:5 0)Exp. le vel: WT (1:5 0) […]
Exp . l eve l: WT (1 :1) F28Exp. le vel: WT (1:5 0) C 2 8 56 .4 7AExp. le vel: WT (1:2 0) WExp. le vel: WT (1:2 0) F28Exp. le vel: WT (1:5 0)Exp . l evel : >WT (1 :1) […]
Exp. le vel: WT (1:5 0)Exp. le vel: WT (1:5 0) C 3 2 77 .4 8AExp . l eve l: WT (1 :5)Exp . l evel : >WT (1 :1)Exp . l evel : >WT (1 :1) […]
Suppl eme nt ary Figure 1 | Mutational analysis of GPR103. […]
mutants. Data are presented as mean values ± SEM, normally n=3-5; dots), each performed in triplicate. b-d Cell-surface expression (b) and QRFP26-in-duced activation of GPR103 (c, d) were analyzed by the flow cytometry and the TGFα shedding assay, respectively. From the concentration–response curves (a), Emax (c) and ΔpEC50 (d) values relative to the wild type were calculated. Colors in the mutant bars indicate an expression level matching to that of titrated wild type. Statistical analyses were performed using the ordinary one-way ANOVA followed by Dunnett tests with the expression-matched […]

- Emax (Exp. #1): 105.09 % WT
- Emax (Exp. #2): 97.15 % WT
- Emax (Exp. #3): 104.38 % WT
- Emax (mean, read-out: Emax): 102%
- EC50 (n = 3): 7.59 nM
- Emax (n = 3, read-out: Emax): 106 ± 2.1%
Substance: TSGPLGNLAEELNGYSRKKGGFSFRF-NH2 [QRFP26]
